What is called melting point is the temperature, or range, at which the solid turns liquid.

Molecules are shown by their SMILES.

The compound `CCC(C)N(C[C@@H]1CCc2[nH]c3ccc(F)cc3c2C1)C[C@H]1COc2ccc3nc(C)ccc3c2O1.Cl.O` (stereo partly drawn) (hydrate or solvate) [Example 58, N-{[(3R)-6-Fluoro-2,3,4,9-tetrahydro-1H-carbazol-3-yl]methyl}-N-{[(2S)-8-methyl-2,3-dihydro[1,4]dioxino[2,3-f]quinolin-2-yl]methyl}butan-2-amine monohydrochloride monohydrate] returned a melting point of 235 to 256 °C.
With `Cc1ccc2c3c(ccc2n1)OC[C@H](CN(C[C@@H]1CCc2[nH]c4ccc(F)cc4c2C1)C1CCCC1)O3.Cl.O` (hydrate or solvate) [Example 59, N-{[(3R)-6-Fluoro-2,3,4,9-tetrahydro-1H-carbazol-3-yl]methyl}-N-{[(2S)-8-methyl-2,3-dihydro[1,4]dioxino[2,3-f]quinolin-2-yl]methyl}cyclopentanamine monohydrochloride monohydrate], the melting point fell in the range of 225 to 243 °C.
`Cc1ccc2c3c(ccc2n1)OC[C@H](CN(C[C@@H]1CCc2[nH]c4ccc(F)cc4c2C1)C1CCCCC1)O3.Cl.O` (hydrate or solvate) [Example 60, N-{[(3R)-6-fluoro-2,3,4,9-tetrahydro-1H-carbazol-3-yl]methyl}-N-{[(2S)-8-methyl-2,3-dihydro[1,4]dioxino[2,3-f]quinolin-2-yl]methyl}cyclohexanamine monohydrochloride monohydrate] yielded a melting point of 207 to 218 °C.
`Cc1ccc2c3c(ccc2n1)OC[C@H](CN(C[C@H]1CCc2[nH]c4ccc(F)cc4c2C1)C(C)C)O3.Cl.O` (hydrate or solvate) [Example 61, N-{[(3S)-6-Fluoro-2,3,4,9-tetrahydro-1H-carbazol-3-yl]methyl}-N-{[(2S)-8-methyl-2,3-dihydro[1,4]dioxino[2,3-f]quinolin-2-yl]methyl}propan-2-amine monohydrochloride monohydrate] yielded a melting point of 228 to 240 °C.
The figure for `CCC(C)N(C[C@H]1CCc2[nH]c3ccc(F)cc3c2C1)C[C@H]1COc2ccc3nc(C)ccc3c2O1.Cl.O` (stereo partly drawn) (hydrate or solvate) [Example 62, N-{[(3S)-6-Fluoro-2,3,4,9-tetrahydro-1H-carbazol-3-yl]methyl}-N-{[(2S)-8-methyl-2,3-dihydro[1,4]dioxino[2,3-f]quinolin-2-yl]methyl}butan-2-amine monohydrochloride monohydrate] is 246 to 257 °C.
In turn, `Cc1ccc2c3c(ccc2n1)OC[C@H](CN(C[C@H]1CCc2[nH]c4ccc(F)cc4c2C1)C1CCCC1)O3.Cl.O` (hydrate or solvate) [Example 63, N-{[(3S)-6-Fluoro-2,3,4,9-tetrahydro-1H-carbazol-3-yl]methyl}-N-{[(2S)-8-methyl-2,3-dihydro[1,4]dioxino[2,3-f]quinolin-2-yl]methyl}cyclopentanamine monohydrochloride monohydrate] showed a melting point of 237 to 254 °C.
Compound `Cc1ccc2c3c(ccc2n1)OC[C@H](CN(C[C@H]1CCc2[nH]c4ccc(F)cc4c2C1)C1CCCCC1)O3.Cl.O` (hydrate or solvate) [Example 64, N-{[(3S)-6-Fluoro-2,3,4,9-tetrahydro-1H-carbazol-3-yl]methyl}-N-{[(2S)-8-methyl-2,3-dihydro[1,4]dioxino[2,3-f]quinolin-2-yl]methyl}cyclohexanamine monohydrochloride monohydrate] returned a melting point of 202 to 208 °C.
With `Cc1ccc2c3c(ccc2n1)OC[C@H](CN(CC1CCc2c(c4cc(F)ccc4n2C)C1)C1CCCC1)O3.Cl.O` (stereo partly drawn) (hydrate or solvate) [Example 66, N-[(6-Fluoro-9-methyl-2,3,4,9-tetrahydro-1H-carbazol-3-yl)methyl]-N-{[(2S)-8-methyl-2,3-dihydro[1,4]dioxino[2,3-f]quinolin-2-yl]methyl}cyclopentanamine monohydrochloride monohydrate], the melting point lay in the range of 206 to 222 °C.

For the origin of these results see patent publication US7297704B2, “Cycloalkyfused indole, benzothiophene, benzofuran and idene derivatives” (Wyeth, priority 2005, dated 2007).
